In patent EP0694535A1, “Non-peptidyl tachykinin receptor antagonists” (ELI LILLY AND COMPANY, priority 1994, dated 1996):

Experiments:
human NK-2 receptor = target: T1, human NK-2 receptor (Homo sapiens, UniProt P21452); assay: NK-2 Receptor Binding Assay (CHO-hNK-2R membranes, iodohistidyl-neurokinin A); conditions: inhibition of neurokinin A binding at ten micromolar, read-out: Percent Inhibition @ 10 μM
T1 construct: expressed in transfected cells; host or cells: CHO-hNK-2R cells (CHO-derived), membrane preparation
T1 sequence (P21452 1-398): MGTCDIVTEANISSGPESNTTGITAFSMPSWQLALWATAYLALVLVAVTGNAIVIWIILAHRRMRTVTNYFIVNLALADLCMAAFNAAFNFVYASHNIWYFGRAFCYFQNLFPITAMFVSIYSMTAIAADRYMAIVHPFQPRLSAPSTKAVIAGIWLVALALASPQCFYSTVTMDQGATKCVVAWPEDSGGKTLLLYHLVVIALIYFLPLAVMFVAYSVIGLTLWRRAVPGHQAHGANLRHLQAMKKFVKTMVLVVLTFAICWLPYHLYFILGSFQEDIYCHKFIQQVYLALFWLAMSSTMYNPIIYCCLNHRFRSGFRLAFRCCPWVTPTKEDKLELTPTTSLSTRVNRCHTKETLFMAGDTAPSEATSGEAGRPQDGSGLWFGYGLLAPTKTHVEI
Method: The CHO-hNK-2R cells, a CHO-derived cell line transformed with the human NK-2 receptor, expressing about 400,000 such receptors per cell, were grown in 75 cm flasks or roller bottles in minimal essential medium (alpha modification) with 10% fetal bovine serum. The gene sequence of the human NK-2 receptor is given in N.P. Gerard, et al., Journal of Biological Chemistry, 265:20455-20462 (1990).
For preparation of membranes, 30 confluent roller bottle cultures were dissociated by washing each roller bottle with 10 ml of Dulbecco's phosphate buffered saline (PBS) without calcium and magnesium, followed by addition of 10 ml of enzyme-free cell dissociation solution (PBS-based, from Specialty Media, Inc.). After an additional 15 minutes, the dissociated cells were pooled and centrifuged at 1,000 RPM for 10 minutes in a clinical centrifuge. Membranes were prepared by homogenization of the cell pellets in 300 ml 50 mM Tris buffer, pH 7.4 with a Tekmar® homogenizer for 10-15 seconds, followed by centrifugation at 12,000 RPM (20,000 x g) for 30 minutes using a Beckman JA-14® rotor. The pellets were washed once using the above procedure. and the final pellets were resuspended in 100-120 ml 50 mM Tris buffer, pH 7.4, and 4 ml aliquots stored frozen at -70 °C. The protein concentration of this preparation was 2 mg/ml.
For the receptor binding assay, one 4-ml aliquot of the CHO-hNK-2R membrane preparation was suspended in 40 ml of assay buffer containing 50 mM Tris, pH 7.4, 3 mM manganese chloride, 0.02% bovine serum albumin (BSA) and 4 µg/ml chymostatin. A 200 µl volume of the homogenate (40 µg protein) was used per sample. The radioactive ligand was [[…]]iodohistidyl-neurokinin A (New England Nuclear, NEX-252), 2200 Ci/mmol. The ligand was prepared in assay buffer at 20 nCi per 100 µl; the final concentration in the assay was 20 pM. Non-specific binding was determined using 1 µM eledoisin. Ten concentrations of eledoisin from 0.1 to 1000 nM were used for a standard concentration-response curve.
All samples and standards were added to the incubation in 10 µl dimethylsulfoxide (DMSO) for screening (single dose) or in 5 µl DMSO for IC₅₀ determinations. The order of additions for incubation was 190 or 195 µl assay buffer, 200 µl homogenate, 10 or 5 µl sample in DMSO, 100 µl radioactive ligand. The samples were incubated 1 hr at room temperature and then filtered on a cell harvester through filters which had been presoaked for two hours in 50 mM Tris buffer, pH 7.7, containing 0.5% BSA. The filter was washed 3 times with approximately 3 ml of cold 50 mM Tris buffer, pH 7.7. The filter circles were then punched into 12 x 75 mm polystyrene tubes and counted in a gamma counter.
Table II, infra, provides a representative sample of the effectiveness as NK-2 receptor antagonists of many of the compounds of Formula I. The first column provides the Example number of the compound tested. The second column provides either the percent inhibition of neurokinin A binding when the compound is present in a ten micromolar concentration or the amount of compound (in micromolar amounts) necessary to inhibit fifty percent of the binding of neurokinin A. Those values which represent IC₅₀ values are designated by parentheses.

NK-1 receptor = target: T2, NK-1 receptor (Homo sapiens, UniProt P25103); assay: NK-1 Receptor Binding Assay (competition with labeled substance P on IM9 cells); conditions: for IC50: concentration which inhibits fifty percent of the binding of substance P, 20 pM labeled substance P, 45 minutes at 4°C
T2 construct: an aliquot of IM9 cells; endogenous in cells; host or cells: IM9 cells (whole cells)
T2 sequence (P25103 whole entry): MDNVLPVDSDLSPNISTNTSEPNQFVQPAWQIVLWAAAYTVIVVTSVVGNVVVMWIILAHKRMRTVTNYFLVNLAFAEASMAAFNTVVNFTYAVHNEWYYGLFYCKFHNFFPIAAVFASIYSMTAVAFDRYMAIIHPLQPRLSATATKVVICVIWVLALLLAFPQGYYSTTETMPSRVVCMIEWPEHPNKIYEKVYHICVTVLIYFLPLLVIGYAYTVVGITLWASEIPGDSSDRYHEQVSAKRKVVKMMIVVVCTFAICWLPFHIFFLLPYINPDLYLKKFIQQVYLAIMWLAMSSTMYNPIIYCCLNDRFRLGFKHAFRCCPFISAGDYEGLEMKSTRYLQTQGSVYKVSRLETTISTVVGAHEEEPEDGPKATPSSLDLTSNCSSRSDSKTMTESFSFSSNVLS
Procedure, shortened: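 IM9 cells (1 x 10⁶/tube in serum-supplemented RPMI) were incubated for 45 min at 4°C with 20 pM […] substance P plus rising competitor concentrations. Binding was stopped by filtration on PEI-soaked glass fiber filters. Nonspecific binding was defined with 20 nM unlabeled ligand.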

Row | Structure (SMILES) | inhibition at 10 µM (human NK-2 receptor) | inhibition at 10 µM (NK-1 receptor; at 10μM, inhibition of substance P binding to the NK-1 receptor, read-out: Percent Inhibition) | IC50 (NK-1 receptor)
1 | Cc1cccc(-c2nc3ccccc3n2Cc2ccc(Cl)cc2)c1 [Example 58, 1-(4-Chlorobenzyl)-2-(3-methylphenyl)benzimidazole] | 42.9% | 29% | 
2 | COc1cc(-c2nc3ccc(OCCCCl)cc3n2Cc2ccccc2)cc(OC)c1OC [Example 75, 1-benzyl-2-(3,4,5-trimethoxyphenyl)-6-(3-chloropropoxy)benzimidazole] | 86.3% |  | 814 nM
3 | Cc1cccc(-c2nc3ccc(OCCN4CCCCC4)cc3n2Cc2ccccc2)c1 [Example 85, 1-benzyl-2-(3-methylphenyl)-6-[2-(1-piperidinyl)ethoxy]benzimidazole] | 73.1% |  | 753 nM
